Test results reported in article PMC3222276 (ACS chemical biology, 2010).

Legend:
[1] = target: cathepsin L (Homo sapiens, UniProt P07711); experiment: Inhibition of recombinant cathepsin L; settings: read-out: Cathepsin L IC50; enzyme 100nM, substrate 10μM, pH 6.25, 30min
[2] = target: cathepsin B (Homo sapiens, UniProt P07858); experiment: Inhibition of recombinant cathepsin B; settings: read-out: Cathepsin B IC50; enzyme 360nM, substrate 50μM, pH 6.25, 30min

cathepsin L, sequence (P07711 114-333, species assumed): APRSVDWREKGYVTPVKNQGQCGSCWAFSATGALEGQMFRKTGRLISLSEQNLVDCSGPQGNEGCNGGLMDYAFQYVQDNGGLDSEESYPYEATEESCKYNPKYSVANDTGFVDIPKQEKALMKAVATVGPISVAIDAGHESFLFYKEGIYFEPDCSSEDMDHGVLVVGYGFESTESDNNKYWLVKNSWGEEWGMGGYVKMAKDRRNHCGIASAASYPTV

In the case of JPM-OEt, the IC50 [1] is reported as 2980 nM and the IC50 [2] is reported as 780 nM.
